Laboratory results taken from article PMC3558805 (British Journal of Clinical Pharmacology, 2012).
Values after ≈ are worked out from the molar mass of the structure shown. “Also recorded” adds a separate entry of the source.

Experiments:
[1] = Urinary excretion of OZ439 and metabolites; assay type: in vivo, human; settings: single rising dose, 0-48 h urine, data not shown
CYP3A4 = CYP3A4 induction assay; assay type: in vivo, human; settings: up to 3 days dosing
[2] = Single rising dose plasma PK, OZ439 capsule, fasted healthy subjects; assay type: in vivo, human
[3] = tested on: P. falciparum laboratory strain NF54; experiment: Ex vivo bioactivity assay of serum samples; assay type: cell-based; settings: Plasmodium falciparum
Plasmodium berghei = settings: single oral dose of 20 mg kg^−1; already known; cited from earlier work
[4] = 14 day toxicology or CNS safety pharmacology studies, preclinical; cited from earlier work
[5] = Safety assessment in healthy subjects; assay type: in vivo, human
[6] = dogs, preclinical; cited from earlier work
[7] = Food effect on plasma PK, 800 mg OZ439 oral dispersion, fed vs fasted; assay type: in vivo; settings: human; for AUC(0-t): single dose 800 mg OZ439 oral dispersion, geometric mean (CV%)
[8] = Plasma pharmacokinetics of OZ439, summary over single and multiple dose parts; assay type: in vivo, human
[9] = Multiple rising dose plasma PK, OZ439 oral dispersion once daily for 3 days; assay type: in vivo, human; settings: for Rac / AUC(0-t) / Cmax: geometric mean (CV%); for AUC(0-t) / Cmax / Tmax: po; for AUC(0-t): AUC(0,24 h)
[10] = Single rising dose plasma PK, OZ439 oral dispersion, fasted healthy subjects; assay type: in vivo, human; settings: for Tmax / AUC(0-inf) / AUC(0-t) / Cmax: human, plasma, po
[11] = both, human, plasma, oral, 50 mg
[12] = both, human, plasma, oral, 100 mg
[13] = both, human, plasma, oral, 200 mg
[14] = 800 mg oral dispersion, fasted regimen, possibly treatment related
[15] = single dose 1600 mg oral dispersion, related to study drug
[16] = human, plasma, 200 mg, 200 mg once a day for 3 days, oral dispersion, day 1
[17] = human, plasma, 200 mg, 200 mg once a day for 3 days, oral dispersion, day 3
[18] = human, plasma, 400 mg, 400 mg once a day for 3 days, oral dispersion, day 1
[19] = human, plasma, 400 mg, 400 mg once a day for 3 days, oral dispersion, day 3
[20] = human, plasma, 800 mg, 800 mg once a day for 3 days, oral dispersion, day 1
[21] = human, plasma, 800 mg, 800 mg once a day for 3 days, oral dispersion, day 3

For `c1cc([C@H]2CC[C@]3(CC2)OO[C@]2(O3)C3CC4CC(C3)CC2C4)ccc1OCCN1CCOCC1` [OZ439], the urinary concentrations [1] was “low or below the limit of quantitation”, the “induction of CYP3A4” value (CYP3A4) was “did not induce” and the AUC(0-t) [2, 11] was 102 ng·h/mL. For the same compound, the Cmax [2, 11] was 17.4 ng/mL, the Tmax [2, 11] was 3 h and the AUC(0-t) [2, 12] was 249 ng·h/mL. The Cmax [2, 12] was 34.2 ng/mL, the Tmax [2, 12] was 5 h and the AUC(0-t) [2, 13] was 890 ng·h/mL. The Cmax [2, 13] was 102 ng/mL, the Tmax [2, 13] was 3.5 h and the Cmax ([2]; both, human, plasma, oral, 400 mg) was 135 ng/mL. The “inter-subject variability of AUC(0,t)” value ([2]; capsule) was 71.5%, the “inter-subject variability of Cmax” value ([2]; capsule) was 79.5% and the “intra-subject variability of AUC(0,t)” value ([2]; capsule) was 92.6%. For the same compound, the “intra-subject variability of Cmax” value ([2]; capsule) was 77.4%, the Tmax ([2]; human, plasma, oral) was 3 to 5 h and the AUC(0-t) ([2]; human, plasma, oral, 400 mg) was 1130 ng·h/mL. For the same compound, the Tmax ([2]; human, plasma, oral, 400 mg) was 3 h, the AUC(0-inf) ([2]; human, plasma, oral, 800 mg) was 4690 ng·h/mL and the AUC(0-t) ([2]; human, plasma, oral, 800 mg) was 3010 ng·h/mL. For the same compound, the Cmax ([2]; human, plasma, oral, 800 mg) was 315 ng/mL, the Tmax ([2]; human, plasma, oral, 800 mg) was 3 h and the concentration at 24 h ([2]; human, plasma, oral, 800 mg) was > 20 ng/mL. The AUC(0-inf) ([2]; human, plasma, oral, 1200 mg) was 9130 ng·h/mL, the AUC(0-t) ([2]; human, plasma, oral, 1200 mg) was 6530 ng·h/mL and the Cmax ([2]; human, plasma, oral, 1200 mg) was 701 ng/mL. For the same compound, the Tmax ([2]; human, plasma, oral, 1200 mg) was 3 h, the IC50 ([3]; NF54, ex vivo serum samples, average value) was 1.5 ng/mL (≈ 3.19 nM) and the IC50 ([3]; NF54, ex vivo serum samples, general range) was 1.3 to 2 ng/mL (≈ 2.77 to 4.26 nM). The IC50 ([3]; NF54, pre-dose serum spiked with a known amount of OZ439) was 1.7 ng/mL (≈ 3.62 nM), the “cure of Plasmodium berghei-infected mice” value (Plasmodium berghei) was “completely cures” and the “central nervous system toxicity” value [4] was “no preclinical evidence of central nervous system toxicity”. The “subjects experiencing AEs” value ([5]; 200 mg once daily for 3 days) was “Three of six”, the “subjects experiencing AEs” value ([5]; 400 mg once daily for 3 days) was 1/6 and the “subjects experiencing AEs” value ([5]; 800 mg once daily for 3 days) was 4/6. For the same compound, the headache [5, 14] was 1/12, the nausea [5, 14] was 1/12 and the oropharyngeal pain [5, 14] was 1/12. The “subjects experiencing AEs” value ([5]; 800 mg oral dispersion, fed regimen) was “Three of 12”, the headache ([5]; 800 mg oral dispersion, fed regimen, possibly treatment related) was 2/12 and the safety and tolerability ([5]; 200, 400 and 800 mg once daily for 3 days) was “safe and well tolerated”. For the same compound, the “effect on QTc interval” value ([5]; healthy subjects) was “no significant effect”, the “overall incidence of AEs” value ([5]; other single rising dose groups, out of 6–8) was 0–2 subjects and the safety and tolerability ([5]; single dose 800 mg oral dispersion, fasted or fed) was “safe and well tolerated”. The “overall incidence of AEs” value ([5]; single dose 1600 mg oral dispersion) was 5/6, the diarrhoea [5, 15] was 3/6 and the gastrointestinal hypermotility [5, 15] was 2/6. For the same compound, the nausea [5, 15] was 3/6, the “effect on audiometry/BAEP” value ([5]; single dose and repeat dose parts) was “no clinically significant changes; also recorded: No effect” and the safety and tolerability ([5]; single doses 50 mg up to 1200 mg capsule, oral dispersion up to 1600 mg) was “safe and well tolerated”. The “no observed adverse effect level (NOAEL)” value [6] was 20 mg/kg/day, the concentration at 96 h [7] was > 10 ng/mL and the AUC(0-t) ([7]; fasted) was 7590 ng·h/mL. The AUC(0-t) ([7]; fed) was 23100 ng·h/mL, the Tmax ([8]; human, plasma, oral) was ~3 h and the “time plasma concentrations exceed the estimated minimum effective concentration” value ([8]; well tolerated dose levels) was ~96 h. The Rac ([9]; 400 mg once a day for 3 days, oral dispersion, day 3) was 1.76 (29.9), the Rac ([9]; 800 mg once a day for 3 days, oral dispersion, day 3) was 1.43 (26.0) and the attainment of steady-state ([9]; day 3 of dosing) was “steady-state was not achieved; also recorded: had not been attained”. It also gave a concentration at 96 h ([9]; human, plasma, oral, 400 mg) of ~17 ng/mL, an AUC(0-t) [9, 16] of 2640 ng·h/mL and an AUC(0-t) [9, 17] of 3060 ng·h/mL. The Cmax [9, 16] was 314 ng/mL, the Cmax [9, 17] was 342 ng/mL and the Tmax ([9]; human, plasma, 200 mg, tmax, 200 mg once a day for 3 days, oral dispersion, day 1, median (range)) was 3.5 h. For the same compound, the Tmax ([9]; human, plasma, 200 mg, tmax, 200 mg once a day for 3 days, oral dispersion, day 3, median (range)) was 3 h, the AUC(0-t) [9, 18] was 4560 ng·h/mL and the AUC(0-t) [9, 19] was 7990 ng·h/mL. For the same compound, the Cmax [9, 18] was 505 ng/mL, the Cmax [9, 19] was 764 ng/mL and the Tmax ([9]; human, plasma, 400 mg, tmax, 400 mg once a day for 3 days, oral dispersion, day 1, median (range)) was 3.5 h. For the same compound, the Tmax ([9]; human, plasma, 400 mg, tmax, 400 mg once a day for 3 days, oral dispersion, day 3, median (range)) was 3 h, the AUC(0-t) [9, 20] was 9570 ng·h/mL and the AUC(0-t) [9, 21] was 13700 ng·h/mL. The Cmax [9, 20] was 1130 ng/mL, the Cmax [9, 21] was 1390 ng/mL and the Tmax ([9]; human, plasma, 800 mg, median tmax, 200, 400 or 800 mg once daily for 3 days, oral dispersion) was 3 h. The Tmax ([9]; human, plasma, 800 mg, tmax, 800 mg once a day for 3 days, oral dispersion, day 1, median (range)) was 3 h, the Tmax ([9]; human, plasma, 800 mg, tmax, 800 mg once a day for 3 days, oral dispersion, day 3, median (range)) was 3 h and the “inter-subject variability of AUC(0,24 h)” value ([9]; multiple dose, oral dispersion) was 54.1%. The “inter-subject variability of Cmax” value ([9]; multiple dose, oral dispersion) was 48.9%, the “time mean plasma concentrations were above 10 ng ml^−1” value ([10]; 400 mg oral dispersion, fasted) was 36 h and the “time mean plasma concentrations were above 10 ng ml^−1” value ([10]; 800 mg oral dispersion, fasted) was 60 h. The “AUC(0,t), oral dispersion compared with capsule” value ([10]; 800 mg, fasted) was 3.2 fold, the “Cmax, oral dispersion compared with capsule” value ([10]; 800 mg, fasted) was 2.9 fold and the “time mean plasma concentrations were above 10 ng ml^−1” value ([10]; 1600 mg oral dispersion, fasted) was 96 h. For the same compound, the Tmax [10] was 3 to 5 h, the AUC(0-inf) ([10]; 400 mg) was 5540 ng·h/mL and the AUC(0-t) ([10]; 400 mg) was 5430 ng·h/mL. It also gave a Cmax ([10]; 400 mg) of 566 ng/mL, a Tmax ([10]; 400 mg) of 3 h and an AUC(0-inf) ([10]; 800 mg) of 9790 ng·h/mL. For the same compound, the AUC(0-t) ([10]; 800 mg) was 9630 ng·h/mL, the Cmax ([10]; 800 mg) was 917 ng/mL and the Tmax ([10]; 800 mg) was 3 h. For the same compound, the AUC(0-t) ([10]; 1600 mg) was 17500 ng·h/mL, the Cmax ([10]; 1600 mg) was 1340 ng/mL and the Tmax ([10]; 1600 mg) was 5 h. The “inter-subject variability of AUC(0,∞)” value ([10]; oral dispersion) was 57.2%, the “inter-subject variability of Cmax” value ([10]; oral dispersion) was 41.8% and the “intra-subject variability of AUC(0,∞)” value ([10]; oral dispersion) was 23.2%. For the same compound, the “intra-subject variability of Cmax” value ([10]; oral dispersion) was 14.0%.
